From article PMC3495945, “Org 214007-0: A Novel Non-Steroidal Selective Glucocorticoid Receptor Modulator with Full Anti-Inflammatory Properties and Improved Therapeutic Index” (PLoS ONE, 2012)

How the values were obtained:
[1] = target: T1, human androgen receptor (AR) (Homo sapiens, UniProt P10275); experiment: CHO steroid receptor reporter assay, AR / MMTV-Luc; assay type: cell-based
T1 construct: expressed in transfected cells; host or cells: CHO K1
T1 sequence (P10275 1-920): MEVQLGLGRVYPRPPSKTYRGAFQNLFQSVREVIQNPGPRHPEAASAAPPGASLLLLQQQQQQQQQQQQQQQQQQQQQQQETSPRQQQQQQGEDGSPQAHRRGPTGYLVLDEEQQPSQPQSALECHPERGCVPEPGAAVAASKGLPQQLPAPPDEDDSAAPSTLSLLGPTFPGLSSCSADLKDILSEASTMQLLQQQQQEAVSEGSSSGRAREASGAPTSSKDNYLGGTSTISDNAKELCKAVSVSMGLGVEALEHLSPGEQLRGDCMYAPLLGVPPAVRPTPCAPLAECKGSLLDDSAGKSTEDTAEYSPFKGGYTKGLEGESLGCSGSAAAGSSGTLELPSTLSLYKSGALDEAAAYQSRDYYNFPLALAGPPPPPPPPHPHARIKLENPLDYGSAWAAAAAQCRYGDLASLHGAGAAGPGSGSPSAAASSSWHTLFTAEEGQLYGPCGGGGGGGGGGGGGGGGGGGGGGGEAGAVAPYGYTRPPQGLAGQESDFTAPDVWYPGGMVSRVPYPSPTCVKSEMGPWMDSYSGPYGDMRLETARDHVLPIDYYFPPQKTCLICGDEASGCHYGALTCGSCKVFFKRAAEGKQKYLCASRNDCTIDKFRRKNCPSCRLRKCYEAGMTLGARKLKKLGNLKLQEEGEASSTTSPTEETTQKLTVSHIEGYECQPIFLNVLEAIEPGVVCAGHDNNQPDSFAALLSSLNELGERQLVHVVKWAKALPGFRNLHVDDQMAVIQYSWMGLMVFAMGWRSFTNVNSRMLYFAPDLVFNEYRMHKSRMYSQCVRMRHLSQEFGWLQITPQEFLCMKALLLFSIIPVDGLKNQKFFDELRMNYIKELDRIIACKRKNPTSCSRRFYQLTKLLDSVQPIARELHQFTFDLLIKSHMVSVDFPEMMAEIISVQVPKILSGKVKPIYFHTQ
From the text: (§1) For monitoring both human steroid receptor agonistic as well as antagonistic activity of compounds, Chinese hamster ovary (CHO) K1 cells stably co-transfected with the specific human steroid receptor and its respective reporter construct were used (as previously described).
(§2) For human glucocorticoid receptor (GR)-specific activity CHO-GR B4.8 cells containing both recombinant human GR as well as a reporter construct consisting of the mouse mammary tumor virus (MMTV) promotor and the luciferase reporter gene, were used. Compound was incubated alone (in the agonistic setup) or with 50 nM dexamethasone (in the antagonistic setup) overnight. Hereafter, 200 µl medium was removed and 50 µl luciferine substrate solution from the LucLite luminescence kit (Packard, Meriden, USA) was added. […] Percentage maximal antagonistic efficacy was related to the maximal antagonistic efficacy of reference GR antagonist Org 34116. Similar procedures were followed for the other human steroid receptor assays (for more detailed information see Supportive Information) (SI text).
(§3) Similar procedures were followed for the other human steroid receptor assays containing combinations of human progesterone receptor B (PR-B) and MMTV-Luc, human androgen receptor (AR) and MMTV-Luc, human chimeric glucocorticoid-mineralocorticoid receptor (GGM, Trapp et al. (1994), Neuron 13: 1457) and MMTV-Luc, human estrogen receptor alpha (ERα) and rat oxytocin-Luc (45), and human estrogen receptor beta (ERβ) and rat oxytocin-Luc, respectively.

[2] = tested on: endometrium in estrogen-primed immature rabbits; experiment: McPhail test (agonistic, progestational activity); assay type: in vivo, rabbit; conditions: 0-4 scale; 5 days; MPA 0.05 mg/kg/day, Org 214007-0 0.5 mg/kg/day; n=2
Procedure: The McPhail (or anti-McPhail) test was used to evaluate potential progestational (or anti-progestational) activity of Org 214007-0 on the endometrium in estrogen-primed immature rabbits after once-daily administration. The female NZW rabbits were housed in pairs in a light- and temperature-controlled room, fed daily with 40 - 50 g standard pelleted food and with free access to tap-water. Before treatment with compounds rabbits were primed daily in the morning with a subcutaneous dose of 2 μg estradiol benzoate for 8 days. […] Transverse sections were prepared, stained with haematoxylin-eosin and evaluated microscopically. Endometrial development was scored on a 0-4 scale as follows: score 0: no development of glands; score 1: start of development of glands; score 2: clear-cut development of glands with ducts beginning to branch; score 3: about 2/3 of stroma bearing glandual tissue; score 4: more than 2/3 of stroma bearing glandular tissue. A score of 2 or higher in both rabbits was evaluated as a positive resonse.
For both the agonistic and antagonistic test immature female NZW rabbits (n=2 per treatment group) were primed with estrogen. […] One day after the last treatment the uterus was dissected and endometrial development was scored on a 0-4 scale. […]

[3] = target: T2, human estrogen receptor alpha (ERα) (Homo sapiens, UniProt P03372); experiment: CHO steroid receptor reporter assay, ERα / rat oxytocin-Luc; assay type: cell-based
T2 construct: expressed in transfected cells; host or cells: CHO K1
T2 sequence (P03372 1-595): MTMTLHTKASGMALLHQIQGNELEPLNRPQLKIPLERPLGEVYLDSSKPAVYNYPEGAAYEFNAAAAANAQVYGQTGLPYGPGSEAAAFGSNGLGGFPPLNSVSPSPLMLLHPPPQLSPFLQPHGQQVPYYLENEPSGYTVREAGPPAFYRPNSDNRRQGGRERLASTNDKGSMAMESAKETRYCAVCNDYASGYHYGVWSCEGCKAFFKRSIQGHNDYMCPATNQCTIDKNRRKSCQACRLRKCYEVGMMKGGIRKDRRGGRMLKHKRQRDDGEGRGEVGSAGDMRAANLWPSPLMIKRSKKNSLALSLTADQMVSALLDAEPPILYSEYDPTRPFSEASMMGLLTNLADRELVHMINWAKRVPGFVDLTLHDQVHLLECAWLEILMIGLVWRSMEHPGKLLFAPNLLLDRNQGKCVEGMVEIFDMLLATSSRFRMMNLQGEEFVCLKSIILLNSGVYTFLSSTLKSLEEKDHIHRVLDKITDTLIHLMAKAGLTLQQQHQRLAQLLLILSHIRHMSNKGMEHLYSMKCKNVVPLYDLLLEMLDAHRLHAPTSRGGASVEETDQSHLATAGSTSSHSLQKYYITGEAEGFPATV
From the text: as §1, §2, §3

[4] = 30 mg/kg, mouse CIA experiment; cited from earlier work

Row | EC50 ([1]; read-out: EC50 (agonist)) | IC50 ([1]; read-out: IC50 (antagonist)) | % agonist potency ([1]; relative to reference compound) | % antagonist potency ([1]; relative to reference compound) | EC50 ([3]; read-out: EC50 (agonist)) | IC50 ([3]; read-out: IC50 (antagonist)) | % agonist potency ([3]; relative to reference compound) | % antagonist potency ([3]; relative to reference compound) | Compound | endometrial development score, agonistic test [2] | serum insulin levels [4]
1 | > 100 nM | > 1000 nM | <0.13% | <3.83% | > 100 nM | > 1000 nM | <0.01% | <1.86% | Cc1nnsc1C(=O)N[C@H]1CCN2c3ccc(C#N)cc3[C@@H](C)c3ccccc3[C@@H]2C1 [Org 214007-0] | 0.5 | –
2 | – | – | – | – | – | – | – | – | C[C@]12C=CC(=O)C=C1CC[C@@H]1[C@@H]2[C@@H](O)C[C@@]2(C)[C@H]1CC[C@]2(O)C(=O)CO [prednisolone, reference compound] | – | significantly elevated
